This note sets out measurements from US11111233B2, “Amino pyrimidine compound for inhibiting protein tyrosine kinase activity” (Shenzhen TargetRx, Inc., priority 2016, dated 2021).

Where two headings read alike, the source gives them in different places. A value given as a limit tells only on which side of the number the result lay.

Assay [1] has as its system Skin cancer cell line A431 (WT). Briefly: Cytotoxicity test (MTS cell viability), A431. It counts as cell-based.
In assay [2] the test system is lung cancer cells HCC827 (Del19). The experiment in a line: Cytotoxicity test (MTS cell viability), HCC827. It counts as cell-based.
Assay [3] addresses WT EGFR (Homo sapiens (Human), UniProt P00533). The experiment in a line: Kinase inhibition assay (HTRF), WT EGFR. The conditions noted are these: HTRF Kinase TK kit, 10 min pre-incubation, 20 min reaction. It counts as biochemical. On the technique in general: In TR-FRET formats the signal depends on donor and acceptor labels being close together.
In assay [4] the target is EGFR [L858R/T790M] (Homo sapiens (Human), UniProt P00533, L858R/T790M). Briefly: Kinase inhibition assay (HTRF), EGFR [L858R/T790M]. Format: biochemical. The conditions noted are these: HTRF Kinase TK kit, 10 min pre-incubation, 20 min reaction; read-out: EGFR(L858R/T790M) IC50.
The mark [5] stands for this setting: Homo sapiens, A-431, 72 h, read-out: A431 (WT) IC50(nM).
[6] abbreviates: Homo sapiens, HCC827, 72 h, read-out: HCC827 (Del19) IC50(nM).
[7] abbreviates: Homo sapiens, A-431, MTS, 72 hours, read-out: A431 (WT) IC50.
[8] abbreviates: Homo sapiens, HCC827, MTS, 72 hours, read-out: HCC827 (Del19) IC50.

Chain of EGFR [L858R/T790M] (P00533 25-1210 T790M/L858R): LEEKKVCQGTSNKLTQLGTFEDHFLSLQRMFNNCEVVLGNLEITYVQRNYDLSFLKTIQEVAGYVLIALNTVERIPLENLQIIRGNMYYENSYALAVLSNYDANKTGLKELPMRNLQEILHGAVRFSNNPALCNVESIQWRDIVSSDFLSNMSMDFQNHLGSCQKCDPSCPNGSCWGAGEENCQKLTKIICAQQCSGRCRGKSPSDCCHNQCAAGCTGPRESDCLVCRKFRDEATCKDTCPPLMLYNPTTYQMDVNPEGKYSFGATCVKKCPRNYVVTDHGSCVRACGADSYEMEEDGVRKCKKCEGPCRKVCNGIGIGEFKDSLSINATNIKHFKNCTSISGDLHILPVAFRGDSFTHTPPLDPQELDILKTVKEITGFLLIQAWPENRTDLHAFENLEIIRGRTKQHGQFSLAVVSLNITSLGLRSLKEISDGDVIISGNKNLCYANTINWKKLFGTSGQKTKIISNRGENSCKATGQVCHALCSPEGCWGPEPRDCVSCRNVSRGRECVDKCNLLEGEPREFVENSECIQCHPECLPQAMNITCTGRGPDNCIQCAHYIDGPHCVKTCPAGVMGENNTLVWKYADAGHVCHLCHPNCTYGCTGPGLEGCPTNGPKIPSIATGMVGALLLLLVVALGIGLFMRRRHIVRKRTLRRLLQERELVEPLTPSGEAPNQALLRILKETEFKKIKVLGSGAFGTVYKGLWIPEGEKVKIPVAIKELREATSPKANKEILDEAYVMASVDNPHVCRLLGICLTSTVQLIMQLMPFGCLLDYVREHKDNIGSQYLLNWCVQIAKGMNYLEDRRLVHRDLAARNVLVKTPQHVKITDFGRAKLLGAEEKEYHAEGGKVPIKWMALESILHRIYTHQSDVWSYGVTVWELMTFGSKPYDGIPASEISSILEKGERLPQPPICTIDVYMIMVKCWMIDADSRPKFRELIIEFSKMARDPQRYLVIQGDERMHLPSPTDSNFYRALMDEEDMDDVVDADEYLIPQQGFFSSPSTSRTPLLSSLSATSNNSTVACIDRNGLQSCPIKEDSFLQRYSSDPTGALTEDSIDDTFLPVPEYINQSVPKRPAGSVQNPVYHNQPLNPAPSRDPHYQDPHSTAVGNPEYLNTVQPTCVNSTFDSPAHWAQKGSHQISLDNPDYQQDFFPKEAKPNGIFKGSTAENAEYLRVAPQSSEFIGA
Chain of WT EGFR (P00533 25-1210): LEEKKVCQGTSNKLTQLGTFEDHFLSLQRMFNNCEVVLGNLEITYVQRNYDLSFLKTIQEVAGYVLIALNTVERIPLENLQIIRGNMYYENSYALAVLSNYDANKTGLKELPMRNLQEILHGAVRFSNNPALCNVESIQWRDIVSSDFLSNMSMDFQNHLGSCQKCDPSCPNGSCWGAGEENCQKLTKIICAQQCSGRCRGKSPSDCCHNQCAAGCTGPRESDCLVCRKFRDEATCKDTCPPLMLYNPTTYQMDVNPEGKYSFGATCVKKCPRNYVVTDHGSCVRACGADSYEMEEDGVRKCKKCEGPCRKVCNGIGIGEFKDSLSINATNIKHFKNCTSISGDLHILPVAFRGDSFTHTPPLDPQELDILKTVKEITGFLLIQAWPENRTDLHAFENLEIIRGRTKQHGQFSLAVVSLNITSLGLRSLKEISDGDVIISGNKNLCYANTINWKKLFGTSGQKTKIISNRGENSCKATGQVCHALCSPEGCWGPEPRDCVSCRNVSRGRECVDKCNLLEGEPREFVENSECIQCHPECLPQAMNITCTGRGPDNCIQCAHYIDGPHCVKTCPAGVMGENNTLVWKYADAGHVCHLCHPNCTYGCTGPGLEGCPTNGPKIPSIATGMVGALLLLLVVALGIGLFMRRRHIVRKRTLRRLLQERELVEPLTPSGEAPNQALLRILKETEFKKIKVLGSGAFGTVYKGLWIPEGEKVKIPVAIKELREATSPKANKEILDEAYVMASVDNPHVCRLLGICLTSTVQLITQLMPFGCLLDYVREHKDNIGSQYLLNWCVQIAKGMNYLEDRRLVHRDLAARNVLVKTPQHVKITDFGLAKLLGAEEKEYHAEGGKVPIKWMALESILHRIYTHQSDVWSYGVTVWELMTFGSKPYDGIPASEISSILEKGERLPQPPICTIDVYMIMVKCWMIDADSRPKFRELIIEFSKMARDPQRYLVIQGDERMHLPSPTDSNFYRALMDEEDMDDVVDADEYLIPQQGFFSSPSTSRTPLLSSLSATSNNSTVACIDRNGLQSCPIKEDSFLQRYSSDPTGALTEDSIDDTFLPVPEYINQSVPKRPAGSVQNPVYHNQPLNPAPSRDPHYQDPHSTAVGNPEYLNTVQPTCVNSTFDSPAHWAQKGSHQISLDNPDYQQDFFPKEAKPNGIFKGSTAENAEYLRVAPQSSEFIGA

In the case of `C=CC(=O)Nc1cc(Nc2nccc(-c3cn(C)c4ccccc34)n2)c(OC)cc1N(C)CCN(C)C` [AZD9291, reference compound], the IC50 in assay [1] (setting [5]) is 100 to 400 nM; in assay [2] (setting [6]) it was 10 to 100 nM.
As to `C=CC(=O)Nc1cc(Nc2ncc(Cl)c(-c3cc(F)c4nc(C)n(C(C)C)c4c3)n2)c(OC)cc1N(C)CCN(C)C` [Example 1, N-(2-((2-(dimethylamino)ethyl)(methyl)amino)-5-((5-chloro-4-(4-fluoro-1-isopropyl-2-methyl-1H-benzo[d]imidazole-6-yl)pyrimidin-2-yl)amino)-4-methoxyphenyl)acrylamide], the IC50 in assay [3] is 1 to 50 nM; in assay [1] (setting [7]), > 1000 nM; in assay [2] (setting [8]) it was 10 to 100 nM.
For the compound `C=CC(=O)Nc1cc(Nc2ncc(C)c(-c3cc(F)c4nc(C)n(C(C)C)c4c3)n2)c(OC)cc1N(C)CCN(C)C` [Example 2, N-(2-((2-(dimethylamino)ethyl)(methyl)amino)-5-((5-methyl-4-(4-fluoro-1-isopropyl-2-methyl-1H-benzo[d]imidazole-6-yl)pyrimidin-2-yl)amino)-4-methoxyphenyl)acrylamide], the IC50 is < 1 nM in assay [4], 1 to 50 nM in assay [3], > 1000 nM in assay [1] (setting [7]) and 10 to 100 nM in assay [2] (setting [8]).
In the case of `C=CC(=O)Nc1cc(Nc2ncc(OC)c(-c3cc(F)c4nc(C)n(C(C)C)c4c3)n2)c(OC)cc1N(C)CCN(C)C` [Example 3, N-(2-((2-(dimethylamino)ethyl)(methyl)amino)-5-((5-methoxy-4-(4-fluoro-1-isopropyl-2-methyl-1H-benzo[d]imidazole-6-yl)pyrimidin-2-yl)amino)-4-methoxyphenyl)acrylamide], the IC50 in assay [4] and in assay [3] was 1 to 50 nM each time.
Consider `C=CC(=O)Nc1cc(Nc2ncc(C(F)(F)F)c(-c3cc(F)c4nc(C)n(C(C)C)c4c3)n2)c(OC)cc1N(C)CCN(C)C` [Example 4, N-(2-((2-(dimethylamino)ethyl)(methyl)amino)-5-((5-trifluoromethyl-4-(4-fluoro-1-isopropyl-2-methyl-1H-benzo[d]imidazole-6-yl)pyrimidin-2-yl)amino)-4-methoxyphenyl)acrylamide], for which the values for the IC50 in assay [4] and in assay [3] were < 1 nM and 1 to 50 nM, respectively.
For `C=CC(=O)Nc1cc(Nc2nccc(-c3cc(F)c4nc5n(c4c3)C(C)(C)CC5)n2)c(OC)cc1N(C)CCN(C)C` [Example 5, N-(2-((2-(dimethylamino)ethyl)(methyl)amino)-5-((4-(5-fluoro-1,1-dimethyl-2,3-dihydro-1H-benzo[d]imidazole[1,2-a]pyrrol-6-yl)pyrimidin-2-yl)amino)-4-methoxyphenyl)acryl amide], the IC50 in assay [4] is < 1 nM; in assay [3], 1 to 50 nM.
As for `C=CC(=O)Nc1cc(Nc2nccc(-c3cc(F)c4nc(OC)n(C(C)C)c4c3)n2)c(OC)cc1N(C)CCN(C)C` [Example 6, N-(2-((2-(dimethylamino)ethyl)(methyl)amino)-5-((4-(4-fluoro-1-isopropyl-2-methoxy-1H-benzo[d]imidazole-6-yl)pyrimidin-2-yl)amino)-4-methoxyphenyl)acrylamide], the IC50 was < 1 nM in assay [4], 1 to 50 nM in assay [3], > 1000 nM in assay [1] (setting [7]) and 10 to 100 nM in assay [2] (setting [8]).
With `C=CC(=O)Nc1cc(Nc2nccc(-c3cc(F)c4nc(OC)n(C(C)C)c4c3)n2)c(OC)cc1OCCN(C)C` [Example 7], the results for the IC50 in assay [3], in assay [1] (setting [5]) and in assay [2] (setting [6]) were 1 to 50 nM, > 1000 nM and 10 to 100 nM, respectively.
As to `C=CC(=O)Nc1cc(Nc2ncc(Br)c(-c3cc(F)c4nc(C)n(C(C)C)c4c3)n2)c(OC)cc1N(C)CCN(C)C` [Example 8, N-(2-((2-(dimethylamino)ethyl)(methyl)amino)-5-((5-bromo-4-(4-fluoro-1-isopropyl-2-methyl-1H-benzo[d]imidazole-6-yl)pyrimidin-2-yl)amino)-4-methoxyphenyl)acrylamide], the IC50 in assay [4] is 1 to 50 nM; in assay [3], 1 to 50 nM; in assay [1] (setting [7]) it was > 1000 nM; in assay [2] (setting [8]) it was 10 to 100 nM.
As to `C=CC(=O)Nc1cc(Nc2ncc(C3CC3)c(-c3cc(F)c4nc(C)n(C(C)C)c4c3)n2)c(OC)cc1N(C)CCN(C)C` [Example 9, N-(2-((2-(dimethylamino)ethyl)(methyl)amino)-5-((5-cyclopropyl-4-(4-fluoro-1-isopropyl-2-methyl-1H-benzo[d]imidazole-6-yl)pyrimidin-2-yl)amino)-4-methoxyphenyl)acrylamide], the IC50 in assay [4] is 1 to 50 nM; in assay [3], > 100 nM; in assay [1] (setting [7]), > 1000 nM; in assay [2] (setting [8]), 400 to 1000 nM.
As for `C=CC(=O)Nc1cc(Nc2nccc(-c3cc(F)c4nc(C)n(C(C)C)c4c3)n2)c(OC)cc1SCCN(C)C` [Example 11, N-(2-(2-(dimethylamino)ethyl)(thio)-5-((4-(4-fluoro-1-isopropyl-2-methyl-1H-benzo[d]imidazole-6-yl)pyrimidin-2-yl)amino)-4-methoxyphenyl)acrylamide], the IC50 is 1 to 50 nM in assay [3], 400 to 1000 nM in assay [1] (setting [5]) and 10 to 100 nM in assay [2] (setting [6]).
Turning to `C=CC(=O)Nc1cc(Nc2nccc(-c3cc(F)c4nc(C)n(C(C)C)c4c3)n2)c(OC)cc1OCCN(C)C` [Example 12, N-(2-(2-(dimethylamino)ethyl)(oxy)-5-((4-(4-fluoro-1-isopropyl-2-methyl-1H-benzo[d]imidazole-6-yl)pyrimidin-2-yl)amino)-4-methoxyphenyl)acrylamide], the IC50 was 100 to 400 nM in assay [1] (setting [5]) and < 10 nM in assay [2] (setting [6]).
Consider `C=CC(=O)Nc1cc(Nc2nccc(-c3cc(F)c4nc(C)n(C(C)C)c4c3)n2)c(OC)cc1N1CCC(OC)CC1` [Example 15], for which the values for the IC50 in assay [4], in assay [1] (setting [7]) and in assay [2] (setting [6]) were 1 to 50 nM, > 1000 nM and 100 to 400 nM, respectively.
The matching figures for `C=CC(=O)Nc1cc(Nc2nccc(-c3cc(F)c4nc(C)n(C(C)C)c4c3)n2)c(OC)cc1N1CCOCC1` [Example 16]: 1 to 50 nM, > 1000 nM and 100 to 400 nM.
With `C=CC(=O)Nc1cc(Nc2ncc(C#N)c(-c3cc(F)c4nc(C)n(C(C)C)c4c3)n2)c(OC)cc1N(C)CCN(C)C` [Example 18, N-(2-((2-(dimethylamino)ethyl)(methyl)amino)-5-((5-cyano-4-(4-fluoro-1-isopropyl-2-methyl-1H-benzo[d]imidazole-6-yl)pyrimidin-2-yl)amino)-4-methoxyphenyl)acrylamide], the IC50 was < 1 nM in assay [4] and 1 to 50 nM in assay [3].
The matching figures for `C=CC(=O)Nc1cc(Nc2ncc(F)c(-c3cc(F)c4nc(C)n(C(C)C)c4c3)n2)c(OC)cc1N(C)CCN(C)C` [Example 19, N-(2-((2-(dimethylamino)ethyl)(methyl)amino)-5-((5-fluoro-4-(4-fluoro-1-isopropyl-2-methyl-1H-benzo[d]imidazole-6-yl)pyrimidin-2-yl)amino)-4-methoxyphenyl)acrylamide]: < 1 nM and 1 to 50 nM.
As for `C=CC(=O)Nc1cc(Nc2nccc(-c3cc(F)c4oc(C)nc4c3)n2)c(OC)cc1N(C)CCN(C)C` [Example 31, N-(2-((2-(dimethylamino)ethyl)(methyl)amino)-5-((4-(7-fluoro-2-methylbenzo[d]oxazole-5-yl)pyrimidin-2-yl)amino)-4-methoxyphenyl)acrylamide], the IC50 in assay [1] (setting [7]) is > 1000 nM.
Consider `C=CC(=O)Nc1cc(Nc2nccc(-c3ccc4ncn(C(C)C)c4c3)n2)c(OC)cc1N(C)CCN(C)C` [Example 36, N-(2-((2-(dimethylamino)ethyl)(methyl)amino)-5-((4-(1-isopropyl-1H-benzo[d]imidazole-6-yl)pyrimidin-2-yl)amino)-4-methoxyphenyl)acrylamide], for which the figures for the IC50 in assay [4] and in assay [3] were < 1 nM and 1 to 50 nM, respectively.
Turning to `C=CC(=O)Nc1cc(Nc2nccc(-c3ccc4nc(C(F)(F)F)n(C(C)C)c4c3)n2)c(OC)cc1N(C)CCN(C)C` [Example 37, N-(2-((2-(dimethylamino)ethyl)(methyl)amino)-5-((4-(1-isopropyl-2-(trifluoromethyl)-1H-benzo[d]imidazole-6-yl)pyrimidin-2-yl)amino)-4-methoxyphenyl)acrylamide], the IC50 in assay [4] and in assay [3] was 1 to 50 nM each time.
Regarding `C=CC(=O)Nc1cc(Nc2nccc(-c3cc(F)c4c(cnn4C)c3)n2)c(OC)cc1N(C)CCN(C)C` [Example 39, N-(2-((2-(dimethylamino)ethyl)(methyl)amino)-5-((4-(7-fluoro-1-methyl-indazole-5-yl)pyrimidin-2-yl)amino)-4-methoxyphenyl)acrylamide], the IC50 in assay [1] (setting [5]) is 100 to 400 nM.
Consider `C=CC(=O)Nc1cc(Nc2nccc(-c3cc(F)c4nc(C)n(C(C)C)c4c3)n2)c(OC(F)F)cc1N(C)CCN(C)C` [Example 47], for which the IC50 in assay [3] is 1 to 50 nM; in assay [1] (setting [7]), 400 to 1000 nM; in assay [2] (setting [6]), < 10 nM.
Turning to `COc1cc(N2CCN(C)CC2)ccc1Nc1nccc(-c2cc(F)c3nc(C)n(C(C)C)c3c2)n1` [Example 54, 4-(4-fluoro-1-isopropyl-2-methyl-1H-benzo[d]imidazole-6-yl)-N-(2-methoxy-4-(4-methylpiperazin-1-yl)phenyl)pyrimidin-2-amine], in assay [1] (setting [7]), the IC50 lay within 400 to 1000 nM.
“N-(2-(4-ethoxypiperidin)-1-yl)-5-((4-(4-fluoro-1-isopropyl-2-methyl-1H-benzo[d]imidazole-6-yl)pyrimidin-2-yl)amino)-4-methoxyphenyl)acrylamide [Example 14]”: the IC50 in assay [1] (MTS, 72 hours, read-out: A431 (WT) IC50) is > 1000 nM; in assay [2] (MTS, 72 hours, read-out: HCC827 (Del19) IC50), 400 to 1000 nM.
